The test has as its system Adhesions in the peritoneal cavity. Put plainly: Adhesions in the peritoneal cavity generated in rats by caecum injury and abdominal wall scarification. In kind it is in vivo, Wistar rats. The method, then:
(§1) Adhesions in the peritoneal cavity were generated in laboratory animals (Wistar rats, 9 months of age, weight of 220-250 g) by injuring the surface of caecum and abdominal wall scarification in the injured area. The study was conducted in compliance with the principles of the European Convention for the Protection of Vertebrate Animals used for Experimental and other Scientific Purposes (Strasbourg, France, 1986), as well as with regulations for humane treatment specified in Guidance for Proper Conduct of Animal Experiments (Attachment to Order No. 755 of the Ministry of Health of the USSR, dated Aug. 12, 1977).
Ten laboratory animals were used in this study. They were divided into 2 groups: the experimental group and the control group.
The calculation was based on the minimum volume of solution required to moisten the peritoneal surface (diZerega G. S. Peritoneum, peritoneal healing and adhesion formation/G. S. diZerega//in: Perotoneal surgery: Ed. G. S. diZerega.—Berlin—Heidelberg—New York: Springer, 2006.—P. 3-38), and the concentration was calculated on the basis of IC50 in the boundary layer of cells. The control animals received a corresponding amount of normal saline solution.
On Day 28 after the abdominal cavity being injured, all animals were autopsied for the examination of abdominal cavity organs and the assessment of the severity and incidence of adhesions, deformation of abdominal cavity organs and distribution of different types of adhesions. The severity of adhesions was scored according to micro- and macroscopic adhesion scales [Micronized purified flavonoid fraction may prevent formation of intraperitoneal adhesions in rats//H. G. Yilmaz, I. H. Tacyildiz, C. Keles et al.//Fertil. Steril.—2005.—Vol. 84, Suppl. 2.—P 1083-1087].
The visceral peritoneum and abdominal organs involved in adhesion formation were examined histologically after fixation in FineFIX solution (Milestone), paraffin filling, staining with hematoxylin-eosin and van Gieson's staining.
as §1, with “surface of the caecum and” for “surface of caecum and”
Thirty laboratory animals were used in this study. They were divided into 2 groups: the experimental group and the control group. […]

Two compounds from patent US10493164B2, “Method for preventing and treating adhesions” (Joint Stock Company “Pharmasyntez”, priority 2011, dated 2019) can be followed below.

For `C[S+]([O-])c1ccc(-c2nc(-c3ccc(F)cc3)c(-c3ccncc3)[nH]2)cc1` (stereo not shown) [SB203580, 4-(4-fluorophenyl)-2-(4-methylsulfinylphenyl)-5-(4-pyridyl)-1H-imidazole], under “Example 5, FIG. 1, abdominal trauma zone and area of postoperative suture”, the “signs of adhesions in histological section of intestinal wall (van Gieson's staining)” value is on record as “No signs of adhesions”. In addition, the “cases of intestinal wall adhesions” value (Example 5: 3 ml sterile solution 10 μg/ml injected once before celiorrhaphy, autopsy Day 28) is given as “No cases of intestinal wall adhesions”. Besides, under “Example 5: 3 ml, 10 μg/ml, once, Day 28, control scored 7, p<0.01”, the “severity of adhesion formation (score, micro- and macroscopic adhesion scales)” value stood at 2.

Regarding “Conjugates of Polyvinylimidazole and 4-(4-Fluorinephenyl)-2-(4-Methylsulphinylphenyl)-5-(4-Pyridyl)-1H-Imidazole [Example 3]”, the “signs of adhesions in histological section of intestinal wall (van Gieson's staining)” value (Example 6, FIG. 4, 30 days after modelling) is “No signs of adhesions”.
